This passage reports Ki results from the Kinase Knowledgebase extract (Sharma et al. 2016).

The assay addresses PIK3CD (Human) (UniProt O00329). Description: Enzyme Assay.

Chain of PIK3CD (Human) (O00329 whole entry, looked up): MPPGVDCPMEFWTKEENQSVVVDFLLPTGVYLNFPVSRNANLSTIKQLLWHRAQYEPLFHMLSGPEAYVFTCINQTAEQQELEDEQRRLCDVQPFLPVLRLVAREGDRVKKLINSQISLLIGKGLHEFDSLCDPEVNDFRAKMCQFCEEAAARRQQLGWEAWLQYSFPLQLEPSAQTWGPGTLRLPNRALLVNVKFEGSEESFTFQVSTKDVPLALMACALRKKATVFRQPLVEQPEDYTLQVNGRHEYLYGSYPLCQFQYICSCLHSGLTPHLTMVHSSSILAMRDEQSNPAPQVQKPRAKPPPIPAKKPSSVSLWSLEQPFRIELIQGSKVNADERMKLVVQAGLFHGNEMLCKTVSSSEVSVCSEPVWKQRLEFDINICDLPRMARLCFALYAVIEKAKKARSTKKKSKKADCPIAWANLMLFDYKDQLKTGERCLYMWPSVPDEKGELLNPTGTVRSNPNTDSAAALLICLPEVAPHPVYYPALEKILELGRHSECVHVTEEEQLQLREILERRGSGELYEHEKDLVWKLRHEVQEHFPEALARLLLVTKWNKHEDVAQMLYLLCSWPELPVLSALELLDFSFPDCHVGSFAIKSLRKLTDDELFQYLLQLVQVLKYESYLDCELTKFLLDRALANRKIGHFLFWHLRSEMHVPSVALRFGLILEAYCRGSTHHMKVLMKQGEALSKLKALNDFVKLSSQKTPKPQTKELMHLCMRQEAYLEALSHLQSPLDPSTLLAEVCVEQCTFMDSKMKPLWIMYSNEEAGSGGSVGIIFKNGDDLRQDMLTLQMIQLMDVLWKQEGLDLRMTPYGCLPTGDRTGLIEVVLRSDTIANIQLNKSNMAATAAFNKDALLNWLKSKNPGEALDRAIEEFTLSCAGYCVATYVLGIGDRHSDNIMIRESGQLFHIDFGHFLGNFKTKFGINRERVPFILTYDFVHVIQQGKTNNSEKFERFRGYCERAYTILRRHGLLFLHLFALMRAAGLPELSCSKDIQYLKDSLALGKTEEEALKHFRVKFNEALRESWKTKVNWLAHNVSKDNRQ

Take `C[C@@H](Nc1ncnc(N)c1C#N)c1nc2ccc(F)cc2n1-c1cccc(F)n1.C[C@H](Nc1ncnc(N)c1C#N)c1nc2ccc(F)cc2n1-c1cccc(F)n1`: the Ki came out at 24.7 nM.

For `CNC(=O)c1cccc(-n2c([C@@H](C)Nc3ncnc(N)c3C#N)nc3ccc(F)cc32)c1.CNC(=O)c1cccc(-n2c([C@H](C)Nc3ncnc(N)c3C#N)nc3ccc(F)cc32)c1`, the inhibition constant (Ki) was determined as 30.6 nM.

Take `C[C@@H](Nc1ncnc(N)c1C#N)c1nc2c(F)cc(F)cc2n1-c1cccnc1.C[C@H](Nc1ncnc(N)c1C#N)c1nc2c(F)cc(F)cc2n1-c1cccnc1`: the Ki is 22.2 nM. This Ki and that of the compound before are within 1.5-fold of each other.

`C[C@@H](Nc1ncnc(N)c1C#N)c1nc2ccc(F)cc2n1-c1cccc(C#N)c1.C[C@H](Nc1ncnc(N)c1C#N)c1nc2ccc(F)cc2n1-c1cccc(C#N)c1` came in with a Ki of 28.8 nM.

Compound `C[C@@H](Nc1ncnc(N)c1C#N)c1nc2cccc(Br)c2n1-c1cncc(F)c1.C[C@H](Nc1ncnc(N)c1C#N)c1nc2cccc(Br)c2n1-c1cncc(F)c1` displayed a Ki of 69.7 nM.

Compound `C[C@@H](Nc1ncnc(N)c1C#N)c1nc2cccc(S(C)(=O)=O)c2n1C1CC1.C[C@H](Nc1ncnc(N)c1C#N)c1nc2cccc(S(C)(=O)=O)c2n1C1CC1` had a Ki of 3.76 nM.

`C[C@@H](Nc1ncnc(N)c1C#N)c1nc2cccc(C#N)c2n1-c1cncc(F)c1.C[C@H](Nc1ncnc(N)c1C#N)c1nc2cccc(C#N)c2n1-c1cncc(F)c1` came in with an inhibitory constant (Ki) of 177 nM.

As for `CNC(=O)c1cccc2nc([C@@H](C)Nc3ncnc(N)c3C#N)n(-c3cncc(F)c3)c12.CNC(=O)c1cccc2nc([C@H](C)Nc3ncnc(N)c3C#N)n(-c3cncc(F)c3)c12`, the Ki turned out to be 90.1 nM.

For `C[C@H](Nc1ncnc(N)c1C#N)c1nc2ccc(F)cc2n1-c1ccc(-c2cccnc2)nc1`, the Ki was 248 nM.

Take `C[C@@H](Nc1ncnc(N)c1C#N)c1nc2ccc(F)cc2n1-c1ccc(-c2cccnc2)nc1`: the Ki came out at 1190 nM.

Regarding `C[C@@H](Nc1ncnc(N)c1C#N)c1nc2ncccc2n1-c1ccccn1.C[C@H](Nc1ncnc(N)c1C#N)c1nc2ncccc2n1-c1ccccn1`, the Ki came to 2900 nM.

Compound `C[C@@H](Nc1ncnc(N)c1C#N)c1nc2cc(F)ccc2n1-c1cncc(F)c1.C[C@H](Nc1ncnc(N)c1C#N)c1nc2cc(F)ccc2n1-c1cncc(F)c1` yielded a Ki of 148 nM.

Turning to `C[C@@H](Nc1ncnc(N)c1C#N)c1nc2ccc(F)cc2n1-c1cncc(NS(C)(=O)=O)c1.C[C@H](Nc1ncnc(N)c1C#N)c1nc2ccc(F)cc2n1-c1cncc(NS(C)(=O)=O)c1`, the Ki amounted to 14.4 nM.

With `C[C@@H](Nc1ncnc(N)c1C#N)c1nc2ccc(F)cc2n1-c1cncc(Br)c1.C[C@H](Nc1ncnc(N)c1C#N)c1nc2ccc(F)cc2n1-c1cncc(Br)c1`, the Ki worked out at 46.1 nM.

`C[C@@H](Nc1ncnc(N)c1C#N)c1nc2c(F)cccc2n1-c1cncc(F)c1.C[C@H](Nc1ncnc(N)c1C#N)c1nc2c(F)cccc2n1-c1cncc(F)c1` displayed a Ki of 86.1 nM.
